Molecules are shown by their SMILES.

The results in this text go back to patent US8207203B2, “Pyridylisoxazole derivatives” (Aska Pharmaceutical Co., Ltd., priority 2006, dated 2012).

One series concerns TNF-α production. The series can be described thus: Measurement of TNF-α production-inhibiting action (LPS-stimulated THP-1 cells, ELISA). The class given is cell-based. Conditions: Homo sapiens; test substance 100 nM; THP-1 cells with LPS, 2 hours' culture; TNF-α in supernatant by ELISA; read-out: TNF-α generation-inhibiting action (inhibition: rate: %, 100 nM). The method, then:
(1) Measurement of TNF-α Production-Inhibiting Action
THP-1, human-derived culture cells (purchased from Dainippon Pharmaceutical Co.), was suspended (1×10^5 cells/mL) in RPMI 1640 medium (10% fetal bovine serum, containing 100 units/mL of penicillin). The THP-1 cell suspension 1.6 mL was inoculated in a 24-well culture plate, to which further a solution of test substance as dissolved in RPMI 1640 medium to make the final concentration of the test substance 100 nM and 0.2 mL of LPS (E. coli 055: B5-derived, dissolved in RPMI 1640 medium, Difco) of 10 μg/mL in concentration were added, followed by 2 hours' culture under the conditions of 37° C. and 5% CO2. The supernatant which was obtained upon centrifuge (500×g, 5 minutes) was measured with ELISA (Amersham Biosciences, TNF-α Human, ELISA Biotrak System) to quantize TNF-α. The TNF-α production inhibition rate (%) at 100 nM of each test substance was calculated according to the following formula, […]
A general note: In an ELISA, binding on a coated surface is turned into a signal by an enzyme label.

A short description of series [1]: Measurement of the compounds' metabolic rate (human liver S9, LC/MS/MS). It is filed as in vitro ADME. Conditions: human liver S9 0.5 mg protein/mL, compound 1 μmol/L, NADPH generating system, pH7.4, 37° C. The procedure: (2) Measurement of the Compounds' Metabolic Rate:
Each test compound was added to potassium phosphate buffer (50 mmol/L, pH7.4) containing NADPH generating system (comprising 3.3 mmol/L MgCl2, 3.3 mmol/L glucose 6-phosphate, 1.3 mmol/L β-NADP^+ and 0.4 unit/mL glucose 6-phosphate dehydrogenase) (in which occasion the final concentration was rendered 1 μmol/L) and incubated at 37° C. for 2 minutes. After the incubation, a suspension of human liver S9 (the supernatant fraction obtained by centrifuging comminuted human liver cell fluid at 9000×g) in potassium phosphate buffer was added to the system, to the final concentration of 0.5 mg protein/mL. This reaction mixture was incubated at 37° C. for 5 minutes, and to which 4 volume times the reaction mixture of acetonitrile was added, mixed, cooled with ice and centrifuged (2000×g, 10 minutes). A part of the supernatant was taken and analyzed by LC/MS/MS, to determine the remaining rate of unchanged substance in the reaction solution. The results are shown in the following Table A, concurrently with the measured results of TNF-α production-inhibiting action in (1) above.

Consider `Cc1cccc(-c2noc(NC(=O)CCc3ccccc3)c2-c2ccncc2)c1` [Example 103, 3-(3-Methylphenyl)-5-(3-phenylpropionylamino)-4-(4-pyridyl)-isoxazole], for which the inhibition at 0.1 µM with TNF-α production worked out at 65.5%. In addition, in series [1], the “percent of unchanged compound remaining after 5 min” value came out at 17.6%.

Consider `Cc1cccc(-c2noc(NC(=O)CCc3ccccc3C)c2-c2ccncc2)c1` [Example 106, 3-(3-Methylphenyl)-5-[(2-methylphenyl)propionylamino]-4-(4-pyridyl)isoxazole], for which the inhibition at 0.1 µM in the series on TNF-α production came to 52.9%. For the same compound, the “percent of unchanged compound remaining after 5 min” value in series [1] is on record as 23.3%.

With `Cc1ccc(F)c(-c2noc(NC(=O)CCc3cccc(Cl)c3)c2-c2ccncc2)c1` [Example 117, 5-[(3-Chlorophenyl)propionylamino]-3-(2-fluoro-5-methylphenyl)-4-(4-pyridyl)isoxazole], in the series on TNF-α production, the inhibition at 0.1 µM is 58.1%. In addition, the “percent of unchanged compound remaining after 5 min” value in series [1] is listed as 50.5%.

On to `Cc1cc(-c2noc(NC(=O)Cc3ccccc3)c2-c2ccncc2)ccc1F` [Example 123, 3-(4-Fluoro-3-methylphenyl)-5-(phenylacetylamino)-4-(4-pyridyl)-isoxazole], for which the inhibition at 0.1 µM in the series on TNF-α production is 78.1%. Further, the “percent of unchanged compound remaining after 5 min” value in series [1] came out at 58.0%.

On to `Cc1cc(-c2noc(NC(=O)Cc3ccccc3Cl)c2-c2ccncc2)ccc1F` [Example 124, 5-[(2-Chlorophenyl)acetylamino]-3-(4-fluoro-3-methylphenyl)-4-(4-pyridyl)isoxazole], for which the inhibition at 0.1 µM with TNF-α production came out at 85.2%. Further, the “percent of unchanged compound remaining after 5 min” value in series [1] is on record as 59.7%.

In the case of `Cc1cc(-c2noc(NC(=O)CCc3ccccc3)c2-c2ccncc2)ccc1F` [Example 125, 3-(4-Fluoro-3-methylphenyl)-5-(3-phenylpropionylamino)-4-(4-pyridyl)isoxazole], the inhibition at 0.1 µM in the series on TNF-α production turned out to be 66%. Moreover, the “percent of unchanged compound remaining after 5 min” value in series [1] stood at 20.1%.
